Experiments:
[1] = tested on: endogenous α7 AChRs in SH-SY5Y neuroblastoma cell line; experiment: Surface 125I αBgt binding in SH-SY5Y cells treated with chemical chaperones; assay type: cell-based, human
[2] = tested on: α7 AChRs in primary cultures of rat hippocampal neurons; experiment: 125I αBgt binding to rat hippocampal neuron cultures; assay type: cell-based; conditions: for Increase of α7 AChR expression: VPA for 5 days
α7/RIC-3 cell line = experiment: Tolerability of chemical chaperones in α7/RIC-3 culture; assay type: cell-based, human; conditions: 6 mM, applied for longer periods than a few days
[3] = target: T1, α7 AChRs on the surface of cells in the α7/RIC-3 line (Homo sapiens, UniProt P36544); experiment: Upregulation of surface 125I αBgt binding in the α7/RIC-3 cell line; assay type: cell-based; conditions: single chemical chaperone
T1 construct: expressed in transfected cells

Rat α7 AChRs = conditions: cited from earlier work

T1 sequence (P36544 23-502): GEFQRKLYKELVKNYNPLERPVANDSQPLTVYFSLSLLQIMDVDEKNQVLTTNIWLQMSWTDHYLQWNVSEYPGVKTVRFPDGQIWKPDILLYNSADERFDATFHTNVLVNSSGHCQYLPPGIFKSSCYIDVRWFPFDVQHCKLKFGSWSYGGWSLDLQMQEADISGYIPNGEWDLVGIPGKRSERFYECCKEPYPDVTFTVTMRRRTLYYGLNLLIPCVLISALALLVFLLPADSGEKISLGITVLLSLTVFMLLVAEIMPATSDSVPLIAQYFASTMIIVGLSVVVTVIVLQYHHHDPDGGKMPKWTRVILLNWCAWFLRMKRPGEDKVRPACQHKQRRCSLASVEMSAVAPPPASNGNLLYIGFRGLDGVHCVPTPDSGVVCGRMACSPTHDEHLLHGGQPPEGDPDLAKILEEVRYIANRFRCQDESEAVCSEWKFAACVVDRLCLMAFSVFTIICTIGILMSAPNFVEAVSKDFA

| Compound | Increase of 125I αBgt binding to the cell surface ([1]; 24 hours, 10 µM) [fold] | Increase of α7 AChRs in the cell surface vs control ([1]; 24 hours, 300 µM) [fold] | Increase in expression of α7 AChRs on the cell surface, maximum ([1]; concentration-dependent) | Effect on 125I αBgt binding ([2]; rat hippocampal neurons (data not shown)) | Toxicity in culture (α7/RIC-3 cell line) | Expression of α7 AChRs on the cell surface [3] | Increase of α7 expression ([1]; 100 µM) [fold] | Increase of α7 AChR expression ([2]; at 20 days in culture) [%] | Increase of α7 AChR expression ([2]; cultures only 1 week old) [%] | Increase of 125I αBgt binding ([2]; long term treatment of primary cultures) [%] | Concentration giving maximum upregulation ([2]; rat hippocampal neurons) [mM] | EC50 (Rat α7 AChRs) [µM] |
| --- | --- | --- | --- | --- | --- | --- | --- | --- | --- | --- | --- | --- |
| O=C(O)CCCc1ccccc1 [PBA, 4-phenylbutyric acid] | 3 | 7.8 | up to 7.8 fold | ineffective | toxic when applied for longer periods | greatly increased |  |  |  |  |  |  |
| CCCC(CCC)C(=O)O [VPA, valproic acid] |  |  |  |  |  | greatly increased | 7.3 | 57 | 68 | 60 | 0.5 |  |
| CC(=O)OCC[N+](C)(C)C [ACh] |  |  |  |  |  |  |  |  |  |  |  | 280 |

From paper PMC3634732, “Chemical Chaperones Exceed the Chaperone Effects of RIC-3 in Promoting Assembly of Functional α7 AChRs” (PLoS ONE, 2013)
